# From patent US11716994B2, “Combinations of Yersinia entomophaga and pesticides or other substances” (priority 2017, dated 2023)
# Where “and” joins values, the source holds several entries; their conditions need not be identical. Identical values can stand only once. Like-named read-outs stand apart in the source and are kept apart here.
# Tests used:
# diamondback moth = experiment: whole plant or invertebrate; conditions: thiacloprid 100 mg/L; for mortality at 100 µg/mL: Plutella xylostella, foliar, Abbott's corrected
# Source text: (§1) These were set to dry for 1 hr.
# as §1
# These were set to dry for 1 hr. Cabbage disks were then dipped in either 1% Luria broth (LB) media solution (controls and thiacloprid alone treatments) or in 1% cell free filtrate from a culture Y. entomophaga isolate O24G3R (Y. entomophaga alone or in combination with thiacloprid treatments).
# Colorado potato beetle [1] = conditions: thiacloprid 1 mg/L
# Protocol: (§2) To produce cell free filtrates, cultures of Yersinia entomophaga grown in LB medium were centrifuged at 11,448 (g) for 10 minutes. The supernatant was decanted from the centrifuged pellet and filtered through a 0.22 μm filter. Assays were performed to determine concentrations of Yen-TC (toxin complex) using ELISA, and chitinase by measuring chitinase activity on specific substrates. […] This was done to estimate relative potency of the cell free filtrates. Insects were first pre-screened with a range of dilutions of cell free filtrates to select a concentration that provided moderate activity. […] Based on these initial screens, undiluted cell free filtrate was used for cabbage looper, fall armyworm, black cutworm, and Colorado potato beetle. […] In each of the Examples below, this is expressed as 1%.
# Tomato leaf disks were dipped in either acetone (controls and Y. entomophaga alone treatments) or thiacloprid (Sigma 37905) at 1 mg/L in acetone. These were set to dry for 1 hr. […] After the tomato disks had dried for 1 hr, a single 3rd instar Colorado potato beetle was added to each individual cabbage disk. A total of 20 insects were evaluate for each treatment. Insects were observed daily and scored as live or dead.
# Colorado potato beetle [2] = experiment: Tomato leaf disk mortality assay, Y. entomophaga cells with chemical insecticides; conditions: for mortality at 1 µg/mL: Leptinotarsa decemlineata, in Solanum lycopersicum, foliar
# Yersinia entomophaga = experiment: CFU counts after exposure of Yersinia entomophaga to insecticides; assay type: cell-based; conditions: 1 hour contact
# Source text: To test combinations of Yersinia entomophaga and pesticides for their ability to produce a pesticidal effect, or an effect on plant growth or yield, we first put various insecticides in contact with Yersinia to identify insecticides that had minimal toxicity to Yersinia entomophaga. The logic was that, if Yersinia entomophaga is to function well in combination with a chemical insecticide, the chemical insecticide would ideally have low or no effect on the ability of Yersinia entomophaga to survive, grow and/or to function.
# To perform this study, we selected amounts of various insecticides based on the percent of the specific insecticide in the insecticide composition obtained from a manufacturer. We also considered the application rate of the particular insecticide, as recommended by the manufacturer. […] Generally, the 1× amount was considered possibly the lowest amount of insecticide that may be considered as an effective amount for use in the combinations disclosed herein. For each insecticide, we also used a higher amount of insecticide (generally a 5× or 10× amount).
# The 1× and 5×/10× amounts of each insecticide were added to tubes along with 1 ml of ethyl acetate. The tubes were mixed until the insecticides dissolved. The tubes were left open in a fume hood overnight to allow the ethyl acetate to evaporate. The insecticide remained in the tubes, as a solid coat on the interior surface of the tubes.
# A growing culture of Yersinia entomophaga, grown in LB medium, was diluted and 1 ml of the diluted culture was added to each tube containing the dried insecticide. The tubes were mixed and then left on the bench top for 1 hour. Then, 100 μl from each tube was plated onto LB plates in triplicate in CFU assays. Plates were incubated at 25° C. for 48 hours and colonies were counted.
# cabbage looper [3] = system: cabbage looper
# fall armyworm [4] = system: fall armyworm
# Protocol: To produce cell free filtrates, cultures of Yersinia entomophaga grown in LB medium were centrifuged at 11,448 (g) for 10 minutes. The supernatant was decanted from the centrifuged pellet and filtered through a 0.22 μm filter. Assays were performed to determine concentrations of Yen-TC (toxin complex) using ELISA, and chitinase by measuring chitinase activity on specific substrates. […] This was done to estimate relative potency of the cell free filtrates. Insects were first pre-screened with a range of dilutions of cell free filtrates to select a concentration that provided moderate activity. […] Based on these initial screens, undiluted cell free filtrate was used for cabbage looper, fall armyworm, black cutworm, and Colorado potato beetle.
# Cabbage leaf disks were dipped in either acetone (controls and Y. entomophaga alone treatments) or fipronil (Sigma 46451) at 12 mg/L in acetone. These were set to dry for 1 hr. […] After the cabbage disks had dried for 1 hr, a single 3rd instar fall armyworm was added to each individual cabbage disk. A total of 20 insects were evaluated for each treatment. Insects were observed daily and scored as live or dead.
# Cabbage leaf disks were dipped in either acetone (controls and Y. entomophaga alone treatments) or esfenvalerate (Sigma 46277) at 56 mg/L in acetone. These were set to dry for 1 hr. […] After the cabbage disks had dried for 1 hr, a single 3rd instar fall armyworm was added to each individual cabbage disk. A total of 20 insects were evaluate for each treatment. Insects were observed daily and scored as live or dead.
# cabbage looper [5] = system: cabbage looper; remark: listed apart in the source
# black cutworm [6] = system: black cutworm
# Protocol: as §2
# Cabbage leaf disks were dipped in either acetone (controls and Y. entomophaga alone treatments) or in indoxacarb (Sigma 33969) at 0.53 mg/L in acetone. These were set to dry for 1 hr. […] After the cabbage disks had dried for 1 hr, a single 2nd instar black cutworm was added to each individual cabbage disk. A total of 20 insects were evaluate for each treatment. Insects were observed daily and scored as live or dead.
# Cabbage leaf disks were dipped in either acetone (controls and Y. entomophaga alone treatments) or in flubendiamide (Sigma 32801) at 0.59 mg/L in acetone. These were set to dry for 1 hr. […] After the cabbage disks had dried for 1 hr, a single 2nd instar black cutworm was added to each individual cabbage disk. A total of 20 insects were evaluate for each treatment. Insects were observed daily and scored as live or dead.
# fall armyworm [7] = experiment: Leaf disk mortality assay, Y. entomophaga cells with chemical insecticides; conditions: for % Mortality (3DAT) / LT50 (95% confidence intervals) in days: 4th instar; for % Mort. Chem.: fall armyworm, Esfenvalerate 56 mg/L
# black cutworm [8] = experiment: as above; conditions: for % Mort. Chem. / LT50 Chem.: black cutworm
# [9] = 3rd instar, esfenvalerate 5.6 mg/L, isolate O24G3R 1×10^4 cfu/mL
# [10] = 3rd instar, esfenvalerate 56 mg/L, isolate O43NEW 1×10^6 cfu/mL
# [11] = esfenvalerate 56 mg/L, isolate O23ZMJ 1×10^5 cfu/mL
# [12] = esfenvalerate 56 mg/L, isolate O24G3R 1×10^5 cfu/mL
# [13] = esfenvalerate 56 mg/L, isolate O348UX 1×10^5 cfu/mL
# [14] = 3rd instar, esfenvalerate 5.6 mg/L, isolate O23ZMJ 1×10^5 cfu/mL
# [15] = 3rd instar, esfenvalerate 5.6 mg/L, isolate O24G3R 1×10^5 cfu/mL
# [16] = 3rd instar, esfenvalerate 5.6 mg/L, isolate O43NEW 1×10^5 cfu/mL
# [17] = 3rd instar, esfenvalerate 5.6 mg/L, isolate O348UX 1×10^5 cfu/mL
smiles,measurement,setting,value
N#C/N=C1\SCCN1Cc1ccc(Cl)nc1 [Thiacloprid],LT50 (95% confidence intervals),"diamondback moth; 2nd instar diamondback moth, O24G3R filtrate 1%, alone or combined",12.58 days
same,LT50 Chem.,diamondback moth; Diamondback moth,12.58 days
same,% Mort. Chem.,"diamondback moth; Diamondback moth, 7 DAT",17%
same,mortality at 100 µg/mL,"diamondback moth; 96 h, read-out: % Mortality (4DAT), 2nd instar diamondback moth, O24G3R filtrate 1%, alone or combined, 4 DAT",5%
same,mortality at 100 µg/mL,"diamondback moth; 120 h, read-out: % Mortality (5DAT), 2nd instar diamondback moth, O24G3R filtrate 1%, alone or combined, 5 DAT",10%
same,mortality at 100 µg/mL,"diamondback moth; 144 h, read-out: % Mortality (6DAT), 2nd instar diamondback moth, O24G3R filtrate 1%, alone or combined, 6 DAT",10%
same,mortality at 100 µg/mL,"diamondback moth; 168 h, read-out: % Mortality (7DAT), 2nd instar diamondback moth, O24G3R filtrate 1%, alone or combined, 7 DAT",17%
same,mortality at 100 µg/mL,"diamondback moth; 288 h, read-out: % Mortality (12DAT), 2nd instar diamondback moth, O24G3R filtrate 1%, alone or combined, 12 DAT",27%
same,mortality at 100 µg/mL,"diamondback moth; 312 h, read-out: % Mortality (13DAT), 2nd instar diamondback moth, O24G3R filtrate 1%, alone or combined, 13 DAT",33%
same,LT50 (95% confidence intervals),"Colorado potato beetle [1]; 3rd instar Colorado potato beetle, O43NEW undiluted filtrate, alone or combined",12.71 days
same,LT50 Chem.,Colorado potato beetle [1]; Colorado potato beetle,12.71 days
same,% Mort. Chem.,"Colorado potato beetle [1]; Colorado potato beetle, 6 DAT",13%
same,LT50 (95% confidence intervals) in days,"Colorado potato beetle [2]; 2nd instar larva, thiacloprid 1 mg/L, isolate O43NEW 1×10^6 cfu/mL",6.99 (6.44-7.58) days
same,% Mort. Chem.,"Colorado potato beetle [2]; Colorado potato beetle, Thiacloprid 1 mg/L, 5 DAT",26%
same,LT50 Chem.,"Colorado potato beetle [2]; Colorado potato beetle, Thiacloprid alone 1 mg/L",6.99 days
same,mortality at 1 µg/mL,"Colorado potato beetle [2]; 96 h, read-out: % Mortality (4DAT)",26%
same,mortality at 1 µg/mL,"Colorado potato beetle [2]; 120 h, read-out: % Mortality (5DAT)",26%
CC(C)[C@H](C(=O)O[C@H](C#N)c1cccc(Oc2ccccc2)c1)c1ccc(Cl)cc1 [Esfenvalerate],Average CFU,Yersinia entomophaga; 0.8 mg insecticide,258 CFU
same,Average CFU,Yersinia entomophaga; 5.3 mg insecticide,0 CFU
same,% Mort. Chem.,"cabbage looper [3]; cabbage looper, Esfenvalerate 0.56 mg/L, 7 DAT",37%
same,LT50 Chem.,"cabbage looper [3]; cabbage looper, Esfenvalerate alone 0.56 mg/L",5.63 days
same,% Mortality (2DAT),cabbage looper [3]; in vivo,5%
same,LT50 (95% confidence intervals) in days,cabbage looper [3]; in vivo,5.63 (5.19-6.11) days
same,LT50 Chem.,"fall armyworm [4]; Fall armyworm, esfenvalerate 56 mg/L",9.84 days
same,% Mort. Chem.,"fall armyworm [4]; fall armyworm, Esfenvalerate 56 mg/L, 5 DAT",40%
same,% Mortality (5DAT),fall armyworm [4]; in vivo,40%
same,% Mortality (7DAT),fall armyworm [4]; in vivo,45%
same,LT50 (95% confidence intervals),fall armyworm [4]; in vivo,9.84 days
same,LT50 Chem.,"cabbage looper [5]; Cabbage Looper, esfenvalerate 0.56 mg/L",5.23 days
same,% Mort. Chem.,"cabbage looper [5]; Cabbage Looper, esfenvalerate 0.56 mg/L, 5 DAT",40%
same,% Mortality (5DAT),cabbage looper [5]; in vivo,40%
same,% Mortality (6DAT),cabbage looper [5]; in vivo,70%
same,% Mortality (8DAT),cabbage looper [5]; in vivo,83%
same,LT50 (95% confidence intervals) in days,cabbage looper [5]; in vivo,5.23 (4.69-5.79) days
same,LT50 Chem.,"black cutworm [6]; Black cutworm, esfenvalerate 5.6 mg/L",3.68 days
same,% Mort. Chem.,"black cutworm [6]; Black cutworm, esfenvalerate 5.6 mg/L, 6 DAT",84%
same,% Mortality (6DAT),black cutworm [6]; in vivo,84%
same,LT50 (95% confidence intervals),black cutworm [6]; in vivo,3.68 days
same,% Mortality (6DAT),fall armyworm [7]; [9],0%
same,LT50 (95% confidence intervals),fall armyworm [7]; [9],20.00 days
same,% Mortality (5DAT),fall armyworm [7]; [10],5%
same,% Mortality (7DAT),fall armyworm [7]; [10],5%
same,% Mortality (9DAT),fall armyworm [7]; [10],11%
same,% Mortality (11DAT),fall armyworm [7]; [10],6%
same,LT50 (95% confidence intervals),fall armyworm [7]; [10],13.6 days
same,% Mortality (3DAT),fall armyworm [7]; [11],25%
same,LT50 (95% confidence intervals) in days,fall armyworm [7]; [11],3.66 (3.28-4.09) days
same,% Mortality (3DAT),fall armyworm [7]; [12],25%
same,LT50 (95% confidence intervals) in days,fall armyworm [7]; [12],3.66 (3.28-4.09) days
same,% Mortality (3DAT),fall armyworm [7]; [13],25%
same,LT50 (95% confidence intervals) in days,fall armyworm [7]; [13],3.66 (3.28-4.09) days
same,% Mort. Chem.,fall armyworm [7]; 3 DAT (row with O23ZMJ),25%
same,% Mort. Chem.,fall armyworm [7]; 3 DAT (row with O24G3R 1 × 10^5),25%
same,% Mort. Chem.,fall armyworm [7]; 3 DAT (row with O348UX),25%
same,% Mort. Chem.,fall armyworm [7]; 5 DAT,5%
same,% Mort. Chem.,fall armyworm [7]; 6 DAT,0%
same,% Mortality (3DAT),black cutworm [8]; [14],42%
same,% Mortality (4DAT),black cutworm [8]; [14],61%
same,LT50 (95% confidence intervals) in days,black cutworm [8]; [14],3.40 (3.03-3.81) days
same,% Mortality (5DAT),black cutworm [8]; [15],50%
same,% Mortality (6DAT),black cutworm [8]; [15],56%
same,% Mortality (7DAT),black cutworm [8]; [15],69%
same,LT50 (95% confidence intervals) in days,black cutworm [8]; [15],5.29 (4.75-5.87) days
same,% Mortality (3DAT),black cutworm [8]; [16],40%
same,% Mortality (4DAT),black cutworm [8]; [16],45%
same,LT50 (95% confidence intervals) in days,black cutworm [8]; [16],3.97 (3.60-4.38) days
same,% Mortality (5DAT),black cutworm [8]; [17],50%
same,% Mortality (6DAT),black cutworm [8]; [17],56%
same,% Mortality (7DAT),black cutworm [8]; [17],69%
same,LT50 (95% confidence intervals),black cutworm [8]; [17],5.29 days
same,% Mort. Chem.,"black cutworm [8]; Esfenvalerate 1.87 mg/L, 5 DAT (row with O24G3R)",50%
same,% Mort. Chem.,"black cutworm [8]; Esfenvalerate 1.87 mg/L, 5 DAT (row with O348UX)",50%
same,% Mort. Chem.,"black cutworm [8]; Esfenvalerate 5.6 mg/L, 4 DAT (row with O23ZMJ)",61%
same,% Mort. Chem.,"black cutworm [8]; Esfenvalerate 5.6 mg/L, 4 DAT (row with O43NEW)",45%
same,LT50 Chem.,black cutworm [8]; Esfenvalerate alone 1.87 mg/L,5.29 days
same,LT50 Chem.,black cutworm [8]; Esfenvalerate alone 5.6 mg/L,3.97 days and 3.40 days
